Reference: patent US12129244B2, “Modulators of Mas-related G-protein receptor X2 and related products and methods” (Escient Pharmaceuticals, Inc., priority 2022, dated 2024)
Values belong to the molecule of their own block, whether it stands above or below them.

Assays:
[1] = tested on: Human LAD2 cells; assay: Mast Cell Beta-Hexosaminidase Release Assay; format: cell-based; details: 500 nM Cortistatin-14, read-out: MRGPRX2 Antagonist Activity
Description: Human LAD2 cells (NIH) were maintained in an incubator at 37° C. with 5% CO2 and cultured in StemPro-34 serum-free media (Gibco 10639011) supplemented with 2 mM L-glutamine, 100 U/ml penicillin, […] streptomycin and 100 ng/ml SCF (Invitrogen PEP0860), at a concentration of 2-5×10^5 cells/mL, with hemidepletion every 1-2 weeks.
Cells were transferred to SCF-Free medium at 2.5×10^5 cells/mL and kept in an incubator overnight. On the day of the assay, cells were washed twice in Assay Buffer (final concentrations 10 mM HEPES, 137 mM NaCl, 5.6 mM D-glucose, 2.7 mM KCl, 1 mM MgCl, 1.8 mM CalCl2, 0.4 mM Na2HPO4·7H2O, 0.04% BSA, pH=7.4) and plated in a 96-well v-bottom plate at 20,000 cells per well in 80 μL Assay Buffer. Antagonist compounds solubilized at 10 mM in DMSO were diluted in Assay Buffer to 10× final desired concentrations as a 10-point curve (10 μM final top concentration with 1:3 serial dilutions) and 10 μL added per well. Plates were then incubated for 1 hour at 37° C. Agonists were diluted in Assay Buffer to 10× desired concentrations and 10 μL of the appropriate agonist added to each well. The final concentration of Cortistatin-14 (Tocris 3374) used in antagonist assays was 500 nM. Final concentrations of DMSO were kept consistent across the plate. Plates were then incubated in a warm air oven for 30 minutes at 37° C., followed by centrifugation at 4° C. for 5 minutes at 450×g. 50 μL supernatant from each well was then transferred to a 96-well flat bottom plate containing 100 μL substrate solution per well (3.5 mg/mL p-Nitrophenyl-N-acetyl-β-D-glucosaminide (Sigma 487052) in Citrate Buffer containing a final concentration of 40 mM Citric Acid, 20 mM Na2HPO4·7H2O, pH=4.5). To the cell pellets left in the remaining assay buffer, 150 μL 0.1% Triton-X-100 was then added to each well, resuspended by pipetting up and down, and 50 μL cell lysates transferred to a second 96-well flat bottom plate containing 100 μL substrate solution per well. Plates containing transferred supernatant and cell lysates were then incubated in a warm air oven for 90 minutes at 37° C. After incubation, 50 μL of 400 mM Glycine buffer (pH 10.7) was added into each well and the plate was read on a Molecular Devices SpectraMax iD5 plate reader (absorbance at 405 nm with reference filter at 620 nm). After background subtraction, the percentage degranulation (percent beta-hexosaminidase release) was calculated as 100×(supernatant values)/(supernatant+lysate values), followed by analysis using GraphPad Prism software to calculate an IC50 value for each compound.
The activity ranges are denoted as follows: “+++++” denotes antagonist activity <100 nM; “++++” denotes antagonist activity between 100 and 500 nM; “+++” denotes activity between 501 and 1000 nM; “++” denotes activity between 1001 and 2500 nM; and “+” denotes activity >2500 nM.

[2] = Mouse Pharmacokinetics Studies (50 mg/kg oral gavage, plasma LC-MS/MS); format: in vivo; details: Male C57BL/6 mice, non-fasted; for AUC(0-t) / Cmax / Tmax: mouse; for Tmax: read-out: PK: Tmax
Description: Compounds were formulated in 5% DMSO, 5% Solutol, and 90% PBS without Ca and Mg (pH 7.4) at a concentration of 5 mg/mL. Male C57BL/6 mice (n=3/compound) were administered a 50 mg/kg dose of each compound by oral gavage under a non-fasted condition. Blood samples were collected via the saphenous vein onto K2-EDTA at 0.25, 0.5, 1, 2, 4, 8 and 24 hours after dosing, and plasma was prepared and stored at −80° C. until analysis. Plasma sample preparation for analysis was done by protein precipitation using acetonitrile (including Verapamil as an internal standard) followed by centrifugation. Compound concentrations were determined in extracted plasma using LC-MS/MS relative to a 12-point standard curve covering the 1 to 4000 nM range. Non-compartmental analysis using Phoenix WinNonlin was used to estimate pharmacokinetic parameters including area under the curve, clearance, and half-life. The administered dose was confirmed by analysis of residual dosing material by UPLC-UV relative to a single point calibration sample.

[3] = target: T1, human MRGPRX2 (Homo sapiens, UniProt Q96LB1); assay: MRGPRX2 activity: IP-One HTRF antagonist assay in CHO cells versus Cortistatin-14; format: cell-based; details: CHO cells stably expressing human MRGPRX2; versus 0.3 uM Cortistatin-14 agonist; IP-1 HTRF
T1 construct: expressed in transfected cells
T1 sequence (Q96LB1 1-330): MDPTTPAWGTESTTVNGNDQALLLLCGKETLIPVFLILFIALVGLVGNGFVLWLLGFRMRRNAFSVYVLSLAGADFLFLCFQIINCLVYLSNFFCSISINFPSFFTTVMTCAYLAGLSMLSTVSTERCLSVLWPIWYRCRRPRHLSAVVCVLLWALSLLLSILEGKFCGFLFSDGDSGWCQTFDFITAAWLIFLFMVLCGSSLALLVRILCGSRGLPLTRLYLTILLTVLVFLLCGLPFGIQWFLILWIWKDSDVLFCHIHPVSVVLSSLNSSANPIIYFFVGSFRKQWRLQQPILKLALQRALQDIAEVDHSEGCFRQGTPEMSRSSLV
Description: CHO cells stably transfected to express human MRGPRX2 were maintained in an incubator at 37° C. with 5% CO2 and grown in F12 (HAM) media with 10% fetal bovine serum (FBS), 1% Glutamax, 1% penicillin/streptomycin, 800 μg/mL Geneticin (G418), and 300 μg/mL Hygromycin B.
Cells were plated in a 384-well assay plate at 20,000 cells per well in 12 μL of Opti-MEM and kept in an incubator overnight. On the day of the assay, compounds solubilized at 10 mM in DMSO were added as a 10-point curve (30 uM final top concentration with 1:3 serial dilutions) using a Tecan D300E digital dispenser. Agonists were diluted in assay buffer (final concentrations of 5.7 mM Tris-HCl, 43 mM NaCl, 50 mM LiCl, pH=8) and 2 μL of the agonist Cortistatin-14 (CPC Scientific, catalog CORT-002) are added to each well. Final concentrations of agonists were 0.3 μM Cortistatin. Final concentrations of DMSO were kept consistent across the plate. Plates were incubated in the dark for 1 h at 37° C. and then for 1 h at room temperature. IP-1 standards and HTRF detection reagents were added according to the IP-One-Gq Kit purchased from Cisbio (part number 62IPAPEJ) and incubated in the dark for 1 h at room temperature. The plate was read on a Molecular Devices SpectraMax iD5 plate reader. The HTRF ratio was calculated from the raw data and graphed using GraphPad Prism to calculate an IC50 value for each compound.
The activity ranges are denoted as follows: “+++++” denotes antagonist activity <100 nM; “++++” denotes antagonist activity between 100 and 500 nM; “+++” denotes activity between 501 and 1000 nM; “[…]” denotes activity between 1001 and 2500 nM; and “+” denotes activity >2500 nM

- IC50 [1]: < 100 nM
SMILES: CCS(=O)(=O)Nc1cccc(C(=O)N[C@@H]2CCC[C@H](Nc3cc(C(F)(F)F)nc4ccc(Cl)cc34)C2)c1 [Example 4-241]

- IC50 [1]: < 100 nM
SMILES: CC(=O)Nc1cccc(C(=O)N[C@@H]2CCC[C@H](Nc3cc(C(F)(F)F)nc4ccc(F)cc34)C2)c1 [Example 4-306]

- AUC 0-24 [2]: 150 µM·h
- AUC(0-t) [2]: 150 µM·h
- Cmax [2]: 14 µM
- Tmax [2]: 2 h
- IC50 [3]: < 100 nM
SMILES: Cc1nn(C(C)C)cc1C(=O)N[C@@H]1CCC[C@H](Nc2cc(C(F)(F)F)nc3ccc(Cl)cc23)C1 [Example 4-402]

- AUC 0-24 [2]: 230 µM·h
- AUC(0-t) [2]: 230 µM·h
- Cmax [2]: 19 µM
- Tmax [2]: 3.7 h
SMILES: O=C(N[C@@H]1CCC[C@H](Nc2cc(C(F)(F)F)nc3ccc(Cl)cc23)C1)c1cnn(C(F)F)c1 [Example 4-399]

- IC50 [1]: 100 to 500 nM
SMILES: CC1(F)CN(C(=O)N[C@@H]2CCC[C@H](Nc3cc(C(F)(F)F)nc4ccc(Cl)cc34)C2)C1 [Example 45, N-((1R,3S)-3-((6-chloro-2-(trifluoromethyl)quinolin-4-yl)amino)cyclohexyl)-3-fluoro-3-methylazetidine-1-carboxamide]

- AUC 0-24 [2]: 220 µM·h
- AUC(0-t) [2]: 220 µM·h
- Cmax [2]: 46 µM
- Tmax [2]: 0.83 h
- IC50 [3]: < 100 nM
SMILES: Nc1ccc(C(=O)N[C@@H]2CCC[C@H](Nc3cc(C(F)(F)F)nc4ccc(Cl)cc34)C2)cn1 [Example 3-19]

- AUC 0-24 [2]: 290 µM·h
- AUC(0-t) [2]: 290 µM·h
- Cmax [2]: 44 µM
- Tmax [2]: 1 h
SMILES: CCn1cc(C(=O)N[C@@H]2CCC[C@H](Nc3cc(C(F)(F)F)nc4ccc(Cl)cc34)C2)cn1 [Example 4-366]

- IC50 [1]: < 100 nM
SMILES: N#CCn1cc(C(=O)N[C@@H]2CCC[C@H](Nc3cc(C(F)(F)F)nc4ccc(Cl)cc34)C2)c(Cl)n1 [Example 5-3]

- IC50 [1]: < 100 nM
SMILES: Cc1cc(C(=O)N[C@@H]2CCC[C@H](Nc3cc(C(F)(F)F)nc4ccc(Cl)cc34)C2)cn1CCF [Example 5-2]

- IC50 [1]: < 100 nM
SMILES: CC(C)C(=O)N1CCN(C(=O)N[C@@H]2CCC[C@H](Nc3cc(C(F)(F)F)nc4ccc(Cl)cc34)C2)CC1 [Example 44, N-((1R,3S)-3-((6-chloro-2-(trifluoromethyl)quinolin-4-yl)amino)cyclohexyl)-4-isobutyrylpiperazine-1-carboxamide]

- IC50 [1]: 501 to 1000 nM
SMILES: CC(C)S(=O)(=O)Nc1ccc(F)c(C(=O)N[C@@H]2CCC[C@H](Nc3cc(C(F)(F)F)nc4ccc(F)cc34)C2)c1F [Example 4-318]

- IC50 [1]: < 100 nM
SMILES: O=C(N[C@@H]1CCC[C@H](Nc2cc(C(F)(F)F)nc3ccc(Cl)cc23)C1)c1ccc(F)nc1 [4-411]

- AUC 0-24 [2]: 120 µM·h
- AUC(0-t) [2]: 120 µM·h
- Cmax [2]: 8.6 µM
- Tmax [2]: 6.7 h
SMILES: COc1ccc(C(=O)N[C@@H]2CCC[C@H](Nc3cc(C(F)(F)F)nc4ccc(F)cc34)C2)cc1 [Example 1-4]

- AUC 0-24 [2]: 280 µM·h
- AUC(0-t) [2]: 280 µM·h
- Cmax [2]: 25 µM
- Tmax [2]: 2.7 h
- IC50 [3]: < 100 nM
SMILES: Nc1ncccc1C(=O)N[C@@H]1CCC[C@H](Nc2cc(C(F)(F)F)nc3ccc(Cl)cc23)C1 [Example 4-409]

- IC50 [3]: < 100 nM
SMILES: CNc1ccc(C(=O)N[C@@H]2CCC[C@H](Nc3cc(C(F)(F)F)nc4ccc(C)cc34)C2)cc1 [Example 4-130]

- IC50 [3]: < 100 nM
SMILES: Cc1c(C(=O)N[C@@H]2CCC[C@H](Nc3cc(C(F)(F)F)nc4ccc(Cl)cc34)C2)ccn1CC(F)F [Example 5-5]

- AUC 0-24 [2]: 130 µM·h
- AUC(0-t) [2]: 130 µM·h
- Cmax [2]: 15 µM
- Tmax [2]: 2.3 h
- IC50 [3]: < 100 nM
SMILES: Cc1ccc(C(=O)N[C@@H]2CCC[C@H](Nc3cc(C(F)(F)F)nc4ccc(Cl)cc34)C2)cn1 [Example 4-403]

- IC50 [3]: < 100 nM
SMILES: O=C(N[C@@H]1CCC[C@H](Nc2cc(C(F)(F)F)nc3ccc(Cl)cc23)C1)c1cncc2cn[nH]c12 [Example 4-398]

- IC50 [3]: < 100 nM
SMILES: O=C(N[C@@H]1CCC[C@H](Nc2cc(C(F)(F)F)nc3ccc(Cl)cc23)C1)c1ccnc2cn[nH]c12 [Example 4-263]

- IC50 [3]: 501 to 1000 nM
SMILES: C=CC12CCC(C(=O)N[C@@H]3CCC[C@H](Nc4cc(C(F)(F)F)nc5ccccc45)C3)(CC1)CO2 [Example 4-171]

- IC50 [3]: < 100 nM
SMILES: Cc1c(C(=O)N[C@@H]2CCC[C@H](Nc3cc(C(F)(F)F)nc4ccc(Cl)cc34)C2)ccn1CCF [Example 5-1]

- IC50 [3]: < 100 nM
SMILES: O=C(N[C@@H]1CCC[C@H](Nc2cc(C(F)(F)F)nc3ccc(Cl)cc23)C1)c1c[nH]nc1C(F)F [Example 4-511]

- IC50 [3]: < 100 nM
SMILES: N#Cc1cc(C(=O)N[C@@H]2CCC[C@H](Nc3cc(C(F)(F)F)nc4ccc(Cl)cc34)C2)c[nH]1 [Example 4-408]

- IC50 [3]: < 100 nM
SMILES: O=C(N[C@@H]1CCC[C@H](Nc2cc(C(F)(F)F)nc3ccc(Cl)cc23)C1)c1c[nH]cc1C(F)(F)F [Example 4-394]

- IC50 [3]: < 100 nM
SMILES: CS(=O)(=O)Nc1ccc(C(=O)N[C@@H]2CCC[C@H](Nc3cc(C(F)(F)F)nc4ccc(Cl)cc34)C2)cc1 [Example 4-240]

- IC50 [3]: > 2500 nM
SMILES: O=C(N[C@@H]1CCC[C@H](Nc2cc(C(F)(F)F)nc3ccccc23)C1)c1ccccc1Oc1ccccc1 (racemic) [Example 4-113]

- IC50 [3]: < 100 nM
SMILES: O=C(N[C@@H]1CCC[C@H](Nc2cc(C(F)(F)F)nc3ccc(Cl)cc23)C1)c1cnn(C2COC2)c1 [Example 4-407]

- IC50 [3]: < 100 nM
SMILES: Cc1c(C(=O)N[C@@H]2CCC[C@H](Nc3cc(C(F)(F)F)nc4ccc(Cl)cc34)C2)cnn1C1CCNCC1 [Example 19, N-((1R,3S)-3-((6-chloro-2-(trifluoromethyl)quinolin-4-yl)amino)cyclohexyl)-5-methyl-1-(piperidin-4-yl)-1H-pyrazole-4-carboxamide]
